Results taken from US11977028B2, “Mechanical-bond-induced exciplex fluorescence” (Northwestern University, priority 2020, dated 2024).
Values joined by “and” are separate entries in the source; they are usually repeats but may differ in a detail not shown here. Equal entries are not always repeated.

Tests used:
[1] = Absorption and photoluminescence spectroscopy in solution; type: physicochemical
Source text: The close proximity of the anthracene units in the mechanically interlocked cyclophanes was expected to give rise to remarkable optical properties distinct from those of the free cyclophanes. We explored the absorption and fluorescence properties of all compounds at high dilution (4×10^−7 M) to avoid reabsorption processes^40 and aggregation effects.^17 All of the optical parameters are summarized in Tables 1 and 2. Initially, we explored the influence of the pyridine/pyridinium units on the optical properties of both ^2,6AnBox^4+ and ^9,10AnBox^4+ cyclophanes. The presence of two pyridinium units within the linker dramatically affect the optical properties of the anthracene moiety. Although ^2,6AnBPY (FIG. 5C) and ^9,10AnBPY display^41 characteristic vibronic peaks associated with the anthracene moiety at 290 and 400 nm, ^2,6AnDB^2+ and ^9,10AnDB^2+ display a shift of the band at 290 to 330 nm (FIG. 5A) and the emergence of a new featureless broad band at 450 nm associated with CT from the anthracene moiety to the pyridinium unit. It is noteworthy that phenylene-bridged bipyridyl linkers (ExBIPY) display^35 a single absorption peak at 325 nm in MeCN, while the anthracene moiety leads to the emergence of some push-pull D-A character.
All reagents were purchased from commercial suppliers (Aldrich or Fisher) and used without further purification. Anthracene derivatives, 9,10-bis(4-pyridyl)anthracene (^9.^10AnBPY) and 2,6-bis(4-pyridyl)anthracene (^2,6AnBPY) were synthesized following^1,2 reports in the literature. All reactions and manipulations were carried out under a dry N2 atmosphere using standard Schlenk. Thin-layer chromatography (TLC) was performed on silica gel 60 F254 TLC plates (Merck). Column chromatography was carried out using CombiFlash® Automation Systems (Teledyne ISCO) employing both normal phase (RediSep Rf Gold® Normal-Phase Silica) and reverse phase (RediSep Rf Gold® Reversed-phase C18). […] All the spectra were baseline-corrected with a MeCN blank sample. The photoluminescence spectra of all samples were obtained with a Fluorolog-3 spectrafluorometer (Horiba Jobin Yvon) in a 2-mm quartz cuvette with 3-nm slit width and a front-phase geometry. The time-correlated single photon counting setup is described elsewhere.^3 Nuclear magnetic resonance (NMR) spectra were recorded on a Bruker Avance III 500 and 600 MHz spectrometers, with working frequencies of 500 and 600 MHz (′H NMR) and 125 MHz (^13C NMR), respectively. Chemical shifts are reported in ppm relative to the signals corresponding to the residual non-deuterated solvents (CD3CN: δ1−1=1.94 ppm and δC=1.32 ppm). High-resolution mass spectra (HRMS) were measured on an Agilent 6210 Time of Flight (TOF) LC-MS, using an ESI source, coupled with Agilent 1100 HPLC stack, using direct infusion (0.6 mL min ^−1). The binding constants were determined using this link: website http://supramolecular.org.^4

[2] = system: MIA PaCa-2 cancer cells; test: Live-cell confocal microscopy imaging; type: cell-based; conditions: concentrations lower than 10×10^−6 M
Procedure: (§1) Cells were grown in standard DMEM (supplemented with 10% Fetal Bovine Serum and 1% Penicillin-Streptomycin, supplier=Corning). Cells were seeded into imaging coverglass chamber 40 hours prior to treatment. Compounds were resuspended in deionized H2O then diluted to the final concentration in media. Cells were treated with compounds for 6 hours prior to imaging.
(§2) All imaging was done on a Leica SP5 laser scanning confocal with LAS AF software in the Biological Imaging Facility at Northwestern University (Evanston, IL). A single excitation wavelength (458 nm) was used at a power of 5 uW. For the emission collection, two Leica spectral Hybrid (HyD) detectors were used; one was set to collect a wavelength range of 500-575 nm (with a gain of 200%) and the second was set to collect a wavelength range of 580-635 nm (with a gain of 103%). Images were processed with FIJI/ImageJ (NIH) and settings were kept consistent throughout the series of images.

[3] = system: MIA PaCa-2 prostate cancer cells; test: Live-cell confocal microscopy imaging; type: cell-based; conditions: 20×10^−6 M, 6 hours treatment, excitation 458 nm
Procedure: as §1, §2

c1cc2ccc1C[n+]1ccc(cc1)-c1ccc3cc4cc(ccc4cc3c1)-c1cc[n+](cc1)Cc1ccc(cc1)C[n+]1ccc(cc1)-c1ccc3cc4cc(ccc4cc3c1)-c1cc[n+](cc1)C2 [^2,6AnBox^4+]
Φ (PL quantum yield) ([1]; 4 × 10^−7 M, MeCN): 3.6%
λabs ([1]; 4 × 10^−7 M, MeCN): 458 nm
λem ([1]; 4 × 10^−7 M, MeCN): 548 nm and 562 nm
τ (emission lifetime) ([1]; 4 × 10^−7 M, MeCN, 405 nm excitation): 3 ns
λem ([1]; 4 × 10^−7 M, MeCN, listed as cyclophane): 562 nm
Stokes shifts (δ) ([1]; DMF, 4 × 10^−7 M): 3153 cm⁻¹
λabs ([1]; DMF, 4 × 10^−7 M): 472 nm
λem ([1]; DMF, 4 × 10^−7 M): 549 nm
λexc ([1]; DMF, 4 × 10^−7 M): 468 nm
Stokes shifts (δ) ([1]; EtOH, 4 × 10^−7 M): 3574 cm⁻¹
λabs ([1]; EtOH, 4 × 10^−7 M): 468 nm
λem ([1]; EtOH, 4 × 10^−7 M): 562 nm
λexc ([1]; EtOH, 4 × 10^−7 M): 468 nm
Stokes shifts (δ) ([1]; H2O, 4 × 10^−7 M): 3284 cm⁻¹
λabs ([1]; H2O, 4 × 10^−7 M): 458 nm
λem ([1]; H2O, 4 × 10^−7 M): 553 nm
λexc ([1]; H2O, 4 × 10^−7 M): 468 nm
Stokes shifts (δ) ([1]; Me2SO, 4 × 10^−7 M): 3915 cm⁻¹
λabs ([1]; Me2SO, 4 × 10^−7 M): 460 nm
λem ([1]; Me2SO, 4 × 10^−7 M): 570 nm
λexc ([1]; Me2SO, 4 × 10^−7 M): 466 nm
charge transfer (CT) absorption band ([1]; MeCN): 458 nm
Stokes shifts (δ) ([1]; MeCN, 4 × 10^−7 M (Table 2)): 3946 cm⁻¹
λabs ([1]; MeCN, 4 × 10^−7 M (Table 2)): 458 nm
λem ([1]; MeCN, 4 × 10^−7 M (Table 2)): 562 nm
λexc ([1]; MeCN, 4 × 10^−7 M (Table 2)): 460 nm
charge transfer (CT) absorption band ([1]; MeCN, listed as cyclophane): 455 nm
Stokes shifts (δ) ([1]; MeOH, 4 × 10^−7 M): 3854 cm⁻¹
λabs ([1]; MeOH, 4 × 10^−7 M): 460 nm
λem ([1]; MeOH, 4 × 10^−7 M): 568 nm
λexc ([1]; MeOH, 4 × 10^−7 M): 466 nm
concentration dependence of excimer/exciplex emission ([1]; from high concentration to high dilution (10^−8 M)): absence of excimer emission at high concentration
emission detected in live cells [2]: No emissions
emission in the green channel (500-575 nm) in live cells [3]: an emission in the green channel
emission in the red channel (580-635 nm) in live cells [3]: very weak emission in the red channel
